Assay results: patent EP0354047A2, “Herbicidal method using atrazine” (MAY & BAKER LIMITED, priority 1988, dated 1990)

Legend:
Eleusine indica [1] = assay: Experiment 2: glasshouse experiment, seedlings at 4-leaf stage, percentage phytotoxicity after 19 days; type: in vivo
Procedure: Agricultural surfactant - nonylphenol ethylene oxide condensate containing 9 moles ethylene oxide (in a commercial composition) was added to all spray dilutions to give 0.2% v/v concentration. […] The ED50 values were as follows:- The results were then used to plot an isobole with a "two-sided effect" according to the methods of […] op. cit. The isobole produced, shown hereinafter in Figure 1 was clearly a type III curve ([…]., page 75), characteristic of synergism.

maize var.Irla = assay: Experiment 5: glasshouse, crop plants at 3 leaf stage, percentage phytotoxicity after 12 days; conditions: for % crop phytotoxicity Maize (3 leaves): Compound 74 0 g/ha
Procedure: An experiment was carried out to determine the biological interaction between atrazine and Compound 74 on maize. A wide range of dose rates of atrazine i.e. 250, 500, 1000 and 2000 g/ha (in a commercial suspension concentrate formulation containing 500g/l w/v atrazine) and of Compound 74 i.e. 31, 63, 125, 250, 1000 and 2000 g/ha (in a composition according to Example 2 as described hereinafter) were applied in a spray volume of 290litres/ha to four replicate 10cm square plastic plant pots of loam soil containing one maize plant, at the 3 leaf growth stage. Agricultural surfactant ('Agral') was added to the spray dilutions to give 0.2%v/v concentration.
After spraying the pots were arranged in randomised blocks in a glasshouse and watered as necessary. After 12 days the plants were assessed for percentage phytotoxicity (reduction in green area compared with unsprayed plants) (0 = no effect 100 = complete destruction).
E = X + Y […] where E, X and Y are percentage phytotoxicity.
The ED values were then used to plot an isobole according to the method of P.M.L. Tammes op cit. The results of percentage phytotoxicity, the ED₂₀ values calculated from them and the calculated expected value are given in Table 9.

Xanthium strumarium = assay: Experiment 3: glasshouse, post-emergence, fresh weight after 19 days, % inhibition of growth; type: in vivo; conditions: 2 leaves
Procedure: (§1) A series of experiments was carried out to determine the nature of the biological interaction between atrazine and five compounds of general formula I on a range of weed species. […] The growth stages of the plants at spraying are also presented with the results. Agricultural surfactant (nonyl phenol ethylene oxide condensate containing 9 moles ethylene oxide marketed as 'Agral') was added to all spray dilutions to give 0.2% v/v concentration. […] After 19 days the fresh weight of vegetation in each pot was determined. […] E = […]00003:character} where E, X and Y are percentage inhibition of growth. In addition, the ED50 or ED90 values (the application rates giving 50% or 90% inhibition of growth, respectively) were calculated from the results for the piperidinedione alone and with increasing rates of atrazine.

Brassica kaber = assay: as above; type: in vivo; conditions: for ED₅₀ / ED₉₀: Atrazine alone; for inhibition at 8 g/ha / inhibition at 16 g/ha / inhibition at 31 g/ha / inhibition at 63 g/ha / inhibition at 125 g/ha: Mutarda arvensis, post-emergence; for inhibition at 8 g/ha: Atrazine 8 g/ha alone; for inhibition at 16 g/ha: Atrazine 16 g/ha alone; for inhibition at 31 g/ha: Atrazine 31 g/ha alone; for inhibition at 63 g/ha: Atrazine 63 g/ha alone; for inhibition at 125 g/ha: Atrazine 125 g/ha alone
Procedure: as §1

Digitaria sanguinalis = assay: as above; type: in vivo; conditions: 3 leaves
Procedure: as §1

Eleusine indica [2] = assay: as above; type: in vivo; conditions: 3 leaves
Procedure: as §1

Amaranthus retroflexus = assay: as above; type: in vivo; conditions: for inhibition at 8 g/ha / inhibition at 16 g/ha / inhibition at 31 g/ha / inhibition at 63 g/ha / inhibition at 125 g/ha: Amaranthus retroflexus, post-emergence; for inhibition at 8 g/ha: Atrazine 8 g/ha alone; for inhibition at 16 g/ha: Atrazine 16 g/ha alone; for inhibition at 31 g/ha: Atrazine 31 g/ha alone; for inhibition at 63 g/ha: Atrazine 63 g/ha alone; for inhibition at 125 g/ha: Atrazine 125 g/ha alone; for ED₉₀: Atrazine alone
Procedure: as §1

Solanum nigrum = assay: as above; type: in vivo; conditions: for ED₉₀: Atrazine alone; for inhibition at 8 g/ha / inhibition at 16 g/ha / inhibition at 31 g/ha / inhibition at 63 g/ha / inhibition at 125 g/ha: Solanum nigrum, post-emergence; for inhibition at 8 g/ha: Atrazine 8 g/ha alone; for inhibition at 16 g/ha: Atrazine 16 g/ha alone; for inhibition at 31 g/ha: Atrazine 31 g/ha alone; for inhibition at 63 g/ha: Atrazine 63 g/ha alone; for inhibition at 125 g/ha: Atrazine 125 g/ha alone
Procedure: as §1

Bidens pilosa = assay: as above; type: in vivo; conditions: 2 leaves
Procedure: as §1

Sesbania exactata = assay: as above; type: in vivo; conditions: 2 leaves
Procedure: as §1

CCNc1nc(Cl)nc(NC(C)C)n1 [Atrazine, 2-chloro-4-ethylamino-6-isopropylamino-1,3,5-triazine]
percentage phytotoxicity (Eleusine indica [1]; Atrazine 125 g/ha alone): 2% | percentage phytotoxicity (Eleusine indica [1]; Atrazine 250 g/ha alone): 13% | percentage phytotoxicity (Eleusine indica [1]; Atrazine 500 g/ha alone): 17% | percentage phytotoxicity (Eleusine indica [1]; Atrazine 1000 g/ha alone): 43% | ED₅₀ (Eleusine indica [1]; Atrazine alone, 50% phytotoxicity): 1193 g/ha | ED₂₀ (maize var.Irla; Atrazine alone): ED₂₀(g/ha) ∞ | crop phytotoxicity (maize var.Irla; Atrazine alone): no crop phytotoxicity | % crop phytotoxicity Maize (3 leaves) (maize var.Irla; Atrazine 250 g/ha): 0% | % crop phytotoxicity Maize (3 leaves) (maize var.Irla; Atrazine 500 g/ha): 0% | % crop phytotoxicity Maize (3 leaves) (maize var.Irla; Atrazine 1000 g/ha): 0% | % crop phytotoxicity Maize (3 leaves) (maize var.Irla; Atrazine 2000 g/ha): 0% | ED₉₀ (Xanthium strumarium; Atrazine alone): ED₉₀(g/ha) 138.01 | inhibition at 8 g/ha (Xanthium strumarium; Xanthium strumarium, post-emergence, Atrazine 8 g/ha alone): 25% | inhibition at 16 g/ha (Xanthium strumarium; Xanthium strumarium, post-emergence, Atrazine 16 g/ha alone): 21% | inhibition at 31 g/ha (Xanthium strumarium; Xanthium strumarium, post-emergence, Atrazine 31 g/ha alone): 72% | inhibition at 63 g/ha (Xanthium strumarium; Xanthium strumarium, post-emergence, Atrazine 63 g/ha alone): 59% | inhibition at 125 g/ha (Xanthium strumarium; Xanthium strumarium, post-emergence, Atrazine 125 g/ha alone): 84% | ED₅₀ (Brassica kaber; 2-3 leaves, Table 4): ED₅₀(g/ha) 88.39 | ED₉₀ (Brassica kaber; 2 leaves, Table 5): ED₉₀(g/ha) 77 | ED₉₀ (Brassica kaber; 2 leaves, Table 6): ED₉₀(g/ha) 62.14 | ED₅₀ (Brassica kaber; 2 leaves, Table 7): ED₅₀(g/ha) 78.24 | inhibition at 8 g/ha (Brassica kaber; 2-3 leaves, Table 4): 16% | inhibition at 8 g/ha (Brassica kaber; 2 leaves, Table 5): 0% | inhibition at 8 g/ha (Brassica kaber; 2 leaves, Table 6): 0% | inhibition at 8 g/ha (Brassica kaber; 2 leaves, Table 7): 0% | inhibition at 16 g/ha (Brassica kaber; 2-3 leaves, Table 4): 5% | inhibition at 16 g/ha (Brassica kaber; 2 leaves, Table 5): 21% | inhibition at 16 g/ha (Brassica kaber; 2 leaves, Table 6): 35% | inhibition at 16 g/ha (Brassica kaber; 2 leaves, Table 7): 0% | inhibition at 31 g/ha (Brassica kaber; 2-3 leaves, Table 4): 19% | inhibition at 31 g/ha (Brassica kaber; 2 leaves, Table 5): 42% | inhibition at 31 g/ha (Brassica kaber; 2 leaves, Table 6): 41% | inhibition at 31 g/ha (Brassica kaber; 2 leaves, Table 7): 17% | inhibition at 63 g/ha (Brassica kaber; 2-3 leaves, Table 4): 30% | inhibition at 63 g/ha (Brassica kaber; 2 leaves, Table 5): 60% | inhibition at 63 g/ha (Brassica kaber; 2 leaves, Table 6): 91% | inhibition at 63 g/ha (Brassica kaber; 2 leaves, Table 7): 27% | inhibition at 125 g/ha (Brassica kaber; 2-3 leaves, Table 4): 57% | inhibition at 125 g/ha (Brassica kaber; 2 leaves, Table 5): 100% | inhibition at 125 g/ha (Brassica kaber; 2 leaves, Table 6): 100% | inhibition at 125 g/ha (Brassica kaber; 2 leaves, Table 7): 75% | ED₉₀ (Digitaria sanguinalis; Atrazine alone): ED₉₀ (g/ha) ∞ | inhibition at 125 g/ha (Digitaria sanguinalis; Digitaria sanguinalis, post-emergence, Atrazine 125 g/ha alone): 25% | inhibition at 500 g/ha (Digitaria sanguinalis; Digitaria sanguinalis, post-emergence, Atrazine 500 g/ha alone): 24% | inhibition at 1000 g/ha (Digitaria sanguinalis; Digitaria sanguinalis, post-emergence, Atrazine 1000 g/ha alone): 32% | ED₅₀ (Eleusine indica [2]; Atrazine alone): ED₅₀ (g/ha)664.61 | inhibition at 125 g/ha (Eleusine indica [2]; Eleusine indica, post-emergence, Atrazine 125 g/ha alone): 4% | inhibition at 500 g/ha (Eleusine indica [2]; Eleusine indica, post-emergence, Atrazine 500 g/ha alone): 36% | inhibition at 1000 g/ha (Eleusine indica [2]; Eleusine indica, post-emergence, Atrazine 1000 g/ha alone): 66% | inhibition at 8 g/ha (Amaranthus retroflexus; 2-4 leaves, Table 4): 8% | inhibition at 8 g/ha (Amaranthus retroflexus; 2 leaves, Table 1): 36% | inhibition at 8 g/ha (Amaranthus retroflexus; 2 leaves, Table 5): 0% | inhibition at 16 g/ha (Amaranthus retroflexus; 2-4 leaves, Table 4): 26% | inhibition at 16 g/ha (Amaranthus retroflexus; 2 leaves, Table 1): 58% | inhibition at 16 g/ha (Amaranthus retroflexus; 2 leaves, Table 5): 58% | inhibition at 31 g/ha (Amaranthus retroflexus; 2-4 leaves, Table 4): 39% | inhibition at 31 g/ha (Amaranthus retroflexus; 2 leaves, Table 1): 81% | inhibition at 31 g/ha (Amaranthus retroflexus; 2 leaves, Table 5): 85% | inhibition at 63 g/ha (Amaranthus retroflexus; 2-4 leaves, Table 4): 56% | inhibition at 63 g/ha (Amaranthus retroflexus; 2 leaves, Table 1): 88% | inhibition at 63 g/ha (Amaranthus retroflexus; 2 leaves, Table 5): 71% | inhibition at 125 g/ha (Amaranthus retroflexus; 2-4 leaves, Table 4): 96% | inhibition at 125 g/ha (Amaranthus retroflexus; 2 leaves, Table 1): 95% | inhibition at 125 g/ha (Amaranthus retroflexus; 2 leaves, Table 5): 99% | ED₉₀ (Amaranthus retroflexus; 2-4 leaves, Table 4): ED₉₀(g/ha) 105.79 | ED₉₀ (Amaranthus retroflexus; 2 leaves, Table 1): ED₉₀(g/ha) 68.57 | ED₉₀ (Amaranthus retroflexus; 2 leaves, Table 5): ED₉₀(g/ha) 53 | ED₉₀ (Solanum nigrum; 1-2 leaves, Table 4): ED₉₀(g/ha) 121.27 | ED₉₀ (Solanum nigrum; 1 leaf, Table 6): ED₉₀(g/ha) 59.35 | ED₉₀ (Solanum nigrum; 2 leaves, Table 7): ED₉₀(g/ha) 72.94 | inhibition at 8 g/ha (Solanum nigrum; 1-2 leaves, Table 4): 9% | inhibition at 8 g/ha (Solanum nigrum; 1 leaf, Table 6): 19% | inhibition at 8 g/ha (Solanum nigrum; 2 leaves, Table 7): 6% | inhibition at 16 g/ha (Solanum nigrum; 1-2 leaves, Table 4): 47% | inhibition at 16 g/ha (Solanum nigrum; 1 leaf, Table 6): 45% | inhibition at 16 g/ha (Solanum nigrum; 2 leaves, Table 7): 27% | inhibition at 31 g/ha (Solanum nigrum; 1-2 leaves, Table 4): 47% | inhibition at 31 g/ha (Solanum nigrum; 1 leaf, Table 6): 73% | inhibition at 31 g/ha (Solanum nigrum; 2 leaves, Table 7): 35% | inhibition at 63 g/ha (Solanum nigrum; 1-2 leaves, Table 4): 67% | inhibition at 63 g/ha (Solanum nigrum; 1 leaf, Table 6): 94% | inhibition at 63 g/ha (Solanum nigrum; 2 leaves, Table 7): 76% | inhibition at 125 g/ha (Solanum nigrum; 1-2 leaves, Table 4): 90% | inhibition at 125 g/ha (Solanum nigrum; 1 leaf, Table 6): 97% | inhibition at 125 g/ha (Solanum nigrum; 2 leaves, Table 7): 99% | ED₅₀ (Bidens pilosa; Atrazine alone): ED₅₀(g/ha)63.17 | inhibition at 8 g/ha (Bidens pilosa; Bidens pilosa, post-emergence, Atrazine 8 g/ha alone): 0% | inhibition at 16 g/ha (Bidens pilosa; Bidens pilosa, post-emergence, Atrazine 16 g/ha alone): 0% | inhibition at 31 g/ha (Bidens pilosa; Bidens pilosa, post-emergence, Atrazine 31 g/ha alone): 5% | inhibition at 63 g/ha (Bidens pilosa; Bidens pilosa, post-emergence, Atrazine 63 g/ha alone): 46% | inhibition at 125 g/ha (Bidens pilosa; Bidens pilosa, post-emergence, Atrazine 125 g/ha alone): 92% | ED₉₀ (Sesbania exactata; Atrazine alone): ED₉₀(g/ha)76.91 | inhibition at 8 g/ha (Sesbania exactata; Sesbania, post-emergence, Atrazine 8 g/ha alone): 21% | inhibition at 16 g/ha (Sesbania exactata; Sesbania, post-emergence, Atrazine 16 g/ha alone): 34% | inhibition at 31 g/ha (Sesbania exactata; Sesbania, post-emergence, Atrazine 31 g/ha alone): 68% | inhibition at 63 g/ha (Sesbania exactata; Sesbania, post-emergence, Atrazine 63 g/ha alone): 86% | inhibition at 125 g/ha (Sesbania exactata; Sesbania, post-emergence, Atrazine 125 g/ha alone): 96%
